# Tests used:
# RAW264.7 [1] = test: Anti-inflammatory activity in LPS-induced mouse RAW264.7 cells assessed as inhibition of TNF-alpha production at 10 uM incubated for 24 hrs by qRT-PCR analysis relative to control; assay type: functional; design: scale not given: the % may be the effect or the level left
# RAW264.7 [2] = test: Anti-inflammatory activity in LPS-induced mouse RAW264.7 cells assessed as inhibition of IL-6 production at 10 uM incubated for 24 hrs by qRT-PCR analysis relative to control; assay type: functional; design: scale not given: the % may be the effect or the level left
# KB = test: Antitumor activity against human KB cells assessed as reduction in cell growth incubated for 96 hrs by MTT assay; assay type: functional, cell-based
# HeLa = test: cells; conditions: Homo sapiens, 96 h
# Description: Anticancer activity against human HeLa cells assessed as inhibition of cell growth incubated for 96 hrs by MTT assay
SMILES,Activity (RAW264.7 [1]),Activity (RAW264.7 [2]),other results
NC(=O)Nc1sc(-c2ccc(F)cc2)cc1C(N)=O,20%,,
CC(C)Cc1ccc(C(C)C(=O)O)cc1 (stereo unspecified) [IBUPROFEN],90%,,
CN(Cc1cnc2nc(N)nc(N)c2n1)c1ccc(C(=O)N[C@@H](CCC(=O)O)C(=O)O)cc1 [METHOTREXATE],,78.5%,
COc1ccc2cc([C@H](C)C(=O)O)ccc2c1 [NAPROXEN],,65%,
CC(=O)O[C@H]1C(=O)[C@@]2(C)[C@H]([C@H](OC(=O)c3ccccc3)[C@]3(O)C[C@H](OC(=O)[C@H](O)[C@@H](NC(=O)c4ccccc4)c4ccccc4)C(C)=C1C3(C)C)[C@]1(OC(C)=O)CO[C@@H]1C[C@@H]2O [PACLITAXEL],,,IC50 (KB): 0.18 µg/mL; IC50 (HeLa): 0.9 µg/mL
